Molecular target: T1, human FSH receptor (Homo sapiens, UniProt P23945)
T1 construct: expressed in transfected cells; host or cells: CHO cells (hFSHR clone 16)
T1 sequence (P23945 18-695): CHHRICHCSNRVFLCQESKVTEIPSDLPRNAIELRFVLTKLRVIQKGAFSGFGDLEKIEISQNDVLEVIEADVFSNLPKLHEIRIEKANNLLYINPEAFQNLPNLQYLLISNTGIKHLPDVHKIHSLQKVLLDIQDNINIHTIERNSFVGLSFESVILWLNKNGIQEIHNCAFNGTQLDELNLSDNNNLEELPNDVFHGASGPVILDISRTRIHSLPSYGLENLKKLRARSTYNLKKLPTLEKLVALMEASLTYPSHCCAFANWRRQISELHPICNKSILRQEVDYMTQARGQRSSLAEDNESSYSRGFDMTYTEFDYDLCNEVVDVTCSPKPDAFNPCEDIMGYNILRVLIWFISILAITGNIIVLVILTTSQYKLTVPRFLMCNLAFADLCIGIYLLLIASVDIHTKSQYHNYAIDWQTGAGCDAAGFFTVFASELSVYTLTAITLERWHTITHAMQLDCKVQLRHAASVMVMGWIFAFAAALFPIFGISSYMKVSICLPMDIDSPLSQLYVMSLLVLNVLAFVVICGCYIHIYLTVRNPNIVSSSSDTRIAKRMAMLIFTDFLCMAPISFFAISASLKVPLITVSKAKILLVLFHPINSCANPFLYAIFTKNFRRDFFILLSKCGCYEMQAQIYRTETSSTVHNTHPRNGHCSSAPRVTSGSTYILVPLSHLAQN
Experiment: HTRF assay for measuring cAMP in cells (FSH antagonism)
Format: cell-based
Details: Table 1; hFSHR clone 16 cells (CHO cells stably transfected with the human FSH receptor), in the presence of 1e-9 mol/l hFSH, 37° C. for 2 h; read-out: IC50 (FSH-antagonistic effect in the HTRF assay)
Protocol: HTRF Assay for Measuring cAMP in Cells
The method is based on a competitive immunoassay between native cAMP, which has been produced by the cells, and cAMP which is labelled with XL665. The tracer binding was visualized by a monoclonal antibody, anti-cAMP labelled with cryptate [HTRF=homogeneous time-resolved fluorescence].
The specific signal is inversely proportional to the cAMP concentration of the samples employed.
The 665 nm/620 nm fluorescence ratio was evaluated.
The following material was used: 96-well plates for the tissue culture, 96-well plates with black edge and black base (e.g. Fluotrac 600 from Greiner), 96-well plates for the substance dilutions of polypropylene and cAMP Femtomolar (4000 wells Kit, CIS Bio International # 62AM1PEC).
The following reagents were used: BSA (bovine serum albumin) Fraction V protease-free, IBMX (3-isobutyl-1-methylxanthine), hFSH (human follicle stimulating hormone), Triton X-100 analytical grade, potassium fluoride analytical grade, G 418 (Geneticin) and Accutase.
Buffer 1 (washing and testing buffer) contained PBS, 1 mM CaCl2, 1 mM MgCl2, 0.2% glucose; 0.1% BSA, 1 mM IBMX.
Buffer 2 (2× lysis buffer) contained 1% Triton X-100 in PBS (without CaCl2 and MgCl2).
Buffer 3 (assay buffer) contained 50 mM potassium phosphate buffer (pH 7.0); 800 mM potassium fluoride; 0.2% BSA (always added fresh).
On day 1, the cells were seeded in 96-well plates (3×10^4 cells per well hFSHR clone 16 cells (CHO cells stably transfected with the human FSH receptor in 150 μl of medium).
The next day, test substance dilutions were made up. For this purpose, all the substances were diluted in ice-cold buffer 1 (with or without hFSH), and the substance dilutions were placed on ice until applied to the cells.
The cell supernatant was then aspirated off, and the cells were washed 2× with 200 μl of buffer 1. The cells were treated with 60 μl of the appropriate substance concentrations at 37° C. for 2 h. The cells were then lysed with 60 μl of buffer 2 (put onto the supernatant) (on a plate shaker at RT for 30 min).
The test conjugates (XL-665 and anti-cAMP cryptate) were diluted in buffer 3 in accordance with the manufacturers' information. The actual mixture for measurement was pipetted into a black 96-well plate (in each case 15 μl of the cell lysate diluted with 35 μl of buffer 1; firstly 25 μl of XL-665 conjugate were pipetted and, after 10 min, 25 μl of the anti-cAMP cryptate were added). This is followed by incubation at RT for 90 minutes. The measurement was carried out in a PheraStar (BMG).
Tissue Culture Conditions
Dose-effect curve (hFSH) for the human receptor: 1e-8, 3e-9, 1 e-9, 3e-10, 1 e-10, 3e-11, 1e-11, 3e-12 mol/l.
The test substances were employed in suitable dilutions in the absence (test for agonism) and in the presence of 1e-9 mol/l hFSH.
The values of the well ratio were averaged and then entered directly in SigmaPlot versus the concentrations. The maximum and minimum values were determined for each plate, and half the difference is to be regarded as IC50.

Compound	IC50 [nM]
CNC(=O)c1cccc(C#Cc2cc3c(c(C(=O)N[C@@H](CO)Cc4c[nH]c5ccccc45)c2)OC(C)(C)C=C3)c1 [Example 11, 2,2-Dimethyl-6-(3-methylcarbamoyl-phenylethynyl)-2H-chromene-8-carboxylic acid [(R)-1-hydroxymethyl-2-(1H-indol-3-yl)-ethyl]-amide]	30
O=C(N[C@@H](CO)Cc1c[nH]c2ccccc12)c1cc(-c2ccc3c(c2)OCO3)cc2c1OCC2 [Example 23, 5-Benzo[1,3]dioxol-5-yl-2,3-dihydro-benzofuran-7-carboxylic acid [(R)-1-hydroxymethyl-2-(1H-indol-3-yl)-ethyl]-amide]	450
O=C(N[C@@H](CO)Cc1c[nH]c2ccccc12)c1cc(-c2ccc(O)cc2)cc2c1OCC2 [Example 51, 5-(4-Hydroxy-phenyl)-2,3-dihydro-benzofuran-7-carboxylic acid [(R)-1-hydroxymethyl-2-(1H-indol-3-yl)-ethyl]-amide]	700
CC(=O)c1cccc(-c2cc3c(c(C(=O)N[C@@H](CO)Cc4c[nH]c5ccccc45)c2)OCC3)c1 [Example 56, 5-(3-Acetyl-phenyl)-2,3-dihydro-benzofuran-7-carboxylic acid [(R)-1-hydroxymethyl-2-(1H-indol-3-yl)-ethyl]-amide]	2000
CNC(=O)c1ccc(-c2cc3c(c(C(=O)N[C@@H](CO)Cc4c[nH]c5ccccc45)c2)OCC3)cc1 [Example 65, 5-(4-Methylcarbamoyl-phenyl)-2,3-dihydro-benzofuran-7-carboxylic acid [(R)-1-hydroxymethyl-2-(1H-indol-3-yl)-ethyl]-amide]	2000
O=C(NC(CO)Cc1c[nH]c2cc(F)ccc12)c1cc(/C=C/c2ccccc2)cc2c1OCCCC2 (centres unmarked) [Example 83, 7-((E)-Styryl)-2,3,4,5-tetrahydro-benzo[b]oxepine-9-carboxylic acid [2-(6-fluoro-1H-indol-3-yl)-1-hydroxymethyl-ethyl]-amide]	350
CNC(=O)c1ccc(C#Cc2cc3c(c(C(=O)NC(CO)Cc4c[nH]c5cc(F)ccc45)c2)OCCCC3)cc1 (centres unmarked) [Example 84, 7-(4-Methylcarbamoyl-phenylethynyl)-2,3,4,5-tetrahydro-benzo[b]oxepine-9-carboxylic acid [2-(6-fluoro-1H-indol-3-yl)-1-hydroxymethyl-ethyl]-amide]	50
COc1ccccc1C#Cc1cc2c(c(C(=O)N[C@@H](CO)Cc3c[nH]c4ccccc34)c1)OCCO2 [Example 85, 7-(2-Methoxy-phenylethynyl)-2,3-dihydro-benzo[1,4]dioxine-5-carboxylic acid [(R)-1-hydroxymethyl-2-(1H-indol-3-yl)-ethyl]-amide]	200
CNC(=O)c1ccc(-c2cc3c(c(C(=O)NC(CO)Cc4c[nH]c5cccc(F)c45)c2)OC(C)(C)C=C3)cc1Cl (centres unmarked) [Example 88, 6-(3-Chloro-4-methylcarbamoyl-phenyl)-2,2-dimethyl-2H-chromene-8-carboxylic acid [2-(4-fluoro-1H-indol-3-yl)-1-hydroxymethyl-ethyl]-amide]	30

The next lines start with the values.

IC50 [nM]	Compound
4000	O=C(N[C@@H](CO)Cc1c[nH]c2ccccc12)c1cc(-c2ccc3ccccc3c2)cc2c1OCC2 [Example 43, 5-Naphthalen-2-yl-2,3-dihydro-benzofuran-7-carboxylic acid [(R)-1-hydroxymethyl-2-(1H-indol-3-yl)-ethyl]-amide]
2000	N#CCc1ccc(-c2cc3c(c(C(=O)N[C@@H](CO)Cc4c[nH]c5ccccc45)c2)OCC3)cc1 [Example 73, 5-(4-Cyanomethyl-phenyl)-2,3-dihydro-benzofuran-7-carboxylic acid [(R)-1-hydroxymethyl-2-(1H-indol-3-yl)-ethyl]-amide]
3000	Cc1cc(C)cc(-c2cc3c(c(C(=O)N[C@@H](CO)Cc4c[nH]c5ccccc45)c2)OCC3)c1 [Example 78, 5-(3,5-Dimethyl-phenyl)-2,3-dihydro-benzofuran-7-carboxylic acid [(R)-1-hydroxymethyl-2-(1H-indol-3-yl)-ethyl]-amide]
4000	CNC(=O)c1cc(F)cc(-c2cc3c(c(C(=O)N[C@@H](CO)Cc4c[nH]c5ccccc45)c2)OCC3)c1 [Example 82, 5-(3-Fluoro-5-methylcarbamoyl-phenyl)-2,3-dihydro-benzofuran-7-carboxylic acid [(R)-1-hydroxymethyl-2-(1H-indol-3-yl)-ethyl]-amide]
1500	CNC(=O)c1cc(F)cc(-c2cc3c(c(C(=O)NC(CO)Cc4c[nH]c5cccc(C)c45)c2)OCCCC3)c1 (centres unmarked) [Example 86, 7-(3-Fluoro-5-methylcarbamoyl-phenyl)-2,3,4,5-tetrahydro-benzo[b]oxepine-9-carboxylic acid [2-hydroxy-1-(4-methyl-1H-indol-3-ylmethyl)-ethyl]-amide]

Same assay, conditions: Table 2; hFSHR clone 16 cells (CHO cells stably transfected with the human FSH receptor), in the presence of 1e-9 mol/l hFSH, 37° C. for 2 h; read-out: IC50 (FSH-antagonistic effect in the HTRF assay)

Compound	IC50 [nM]
CNC(=O)c1ccc(-c2cc3c(c(C(=O)NC(CO)Cc4c[nH]c5ccc(F)cc45)c2)OC(C)(C)C=C3)cc1Cl (centres unmarked) [Example 89, 6-(3-Chloro-4-methylcarbamoyl-phenyl)-2,2-dimethyl-2H-chromene-8-carboxylic acid [2-(5-fluoro-1H-indol-3-yl)-1-hydroxymethyl-ethyl]-amide]	20
O=C(N[C@@H](CO)Cc1c[nH]c2ccccc12)c1cc(-c2ccc(CO)cc2)cc2c1OCCO2 [Example 96, 7-(4-Hydroxymethyl-phenyl)-2,3-dihydro-benzo[1,4]dioxine-5-carboxylic acid [(R)-1-hydroxymethyl-2-(1H-indol-3-yl)-ethyl]-amide]	1000
CSc1cccc(-c2cc3c(c(C(=O)N[C@@H](CO)Cc4c[nH]c5ccccc45)c2)OCCO3)c1 [Example 100, 7-(3-Methylsulfanyl-phenyl)-2,3-dihydro-benzo[1,4]dioxine-5-carboxylic acid [(R)-1-hydroxymethyl-2-(1H-indol-3-yl)-ethyl]-amide]	900
N#Cc1cc(-c2cc3c(c(C(=O)N[C@@H](CO)Cc4c[nH]c5ccccc45)c2)OCCO3)ccc1F [Example 104, 7-(3-Cyano-4-fluoro-phenyl)-2,3-dihydro-benzo[1,4]dioxine-5-carboxylic acid [(R)-1-hydroxymethyl-2-(1H-indol-3-yl)-ethyl]-amide]	1000

Continued, values first:

IC50 [nM]	Compound
60	CNC(=O)c1cccc(C#Cc2cc3c(c(C(=O)NC(CO)Cc4c[nH]c5cc(F)ccc45)c2)OCCCC3)c1 (centres unmarked) [Example 91, 7-(3-Methylcarbamoyl-phenylethynyl)-2,3,4,5-tetrahydro-benzo[b]oxepine-9-carboxylic acid [2-(6-fluoro-1H-indol-3-yl)-1-hydroxymethyl-ethyl]-amide]
500	O=C(N[C@@H](CO)Cc1c[nH]c2ccccc12)c1cc(-c2ccc(-c3ccccc3)cc2)cc2c1OCCO2 [Example 92, 7-Biphenyl-4-yl-2,3-dihydro-benzo[1,4]dioxine-5-carboxylic acid [(R)-1-hydroxymethyl-2-(1H-indol-3-yl)-ethyl]-amide]

From US20080207728A1, “BICYCLIC ACYLTRYPTOPHANOLS” (priority 2006, published 2008)
